Data as given in the supplement of paper PMC10307832.

How the values were obtained:
Experiment in all cases: relative viability (nuclei count vs DMSO), 5 days (fraction); higher = more cells survive
A-427 = system: A-427
Procedure, shortened: (§1)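 Relative viability divides the nuclei count in treated wells by that in vehicle wells. Lung cancer cell lines were seeded in 1536-well plates, dosed by pin tool the next day, and fixed and stained after 5 days in one step with final 0.05% Triton X-100, 1% formaldehyde and 1 ug/ml Hoechst. Dosing was a single drug or a fixed anchor-drug dose plus five library-drug doses (not always all listed) in √10 steps, and values are medians of duplicate plates imaged at 4×.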

BEN = system: BEN
Procedure, shortened: as §1

EKVX = system: EKVX
Procedure, shortened: as §1

LK-2 = system: LK-2
Procedure, shortened: as §1

NCI-H1563 = system: NCI-H1563
Procedure, shortened: as §1

NCI-H1755 = system: NCI-H1755
Procedure, shortened: as §1

NCI-H2085 = system: NCI-H2085
Procedure, shortened: as §1

NCI-H2228 = system: NCI-H2228
Procedure, shortened: as §1

NCI-H2347 = system: NCI-H2347
Procedure, shortened: as §1

NCI-H3122 = system: NCI-H3122
Procedure, shortened: as §1

NCI-H322M = system: NCI-H322M
Procedure, shortened: as §1

NCI-H358 = system: NCI-H358
Procedure, shortened: as §1

NCI-H460 = system: NCI-H460
Procedure, shortened: as §1

NCI-H520 = system: NCI-H520
Procedure, shortened: as §1

NCI-H596 = system: NCI-H596
Procedure, shortened: as §1

NCI-H650 = system: NCI-H650
Procedure, shortened: as §1

NCI-H727 = system: NCI-H727
Procedure, shortened: as §1

NCI-H838 = system: NCI-H838
Procedure, shortened: as §1

SW 1573 = system: SW 1573
Procedure, shortened: as §1

COCC1(CO)C(=O)C2CCN1CC2 (centres undefined) [PRIMA-1MET] + Cc1nc(NC(=O)N2CCC[C@H]2C(N)=O)sc1-c1ccnc(C(C)(C)C(F)(F)F)c1 [Alpelisib] (partner 2 µM)
relative viability (A-427; first compound 0.2 µM): 1.04
relative viability (A-427; first compound 0.6325 µM): 1.05
relative viability (A-427; first compound 2 µM): 0.9
relative viability (A-427; first compound 6.325 µM): 1.04
relative viability (A-427; first compound 20 µM): 1.07
relative viability (BEN; first compound 0.2 µM): 1.26
relative viability (BEN; first compound 0.6325 µM): 0.833
relative viability (BEN; first compound 6.325 µM): 0.909
relative viability (BEN; first compound 20 µM): 0.994
relative viability (EKVX; first compound 0.2 µM): 0.978
relative viability (EKVX; first compound 0.6325 µM): 0.966
relative viability (EKVX; first compound 2 µM): 0.638
relative viability (EKVX; first compound 6.325 µM): 0.911
relative viability (EKVX; first compound 20 µM): 0.778
relative viability (LK-2; first compound 0.2 µM): 1.22
relative viability (LK-2; first compound 0.6325 µM): 0.868
relative viability (LK-2; first compound 2 µM): 0.577
relative viability (LK-2; first compound 6.325 µM): 0.626
relative viability (LK-2; first compound 20 µM): 0.162
relative viability (NCI-H1563; first compound 0.2 µM): 0.889
relative viability (NCI-H1563; first compound 0.6325 µM): 0.904
relative viability (NCI-H1563; first compound 2 µM): 0.915
relative viability (NCI-H1563; first compound 6.325 µM): 1.05
relative viability (NCI-H1563; first compound 20 µM): 0.361
relative viability (NCI-H1755; first compound 0.2 µM): 0.974
relative viability (NCI-H1755; first compound 0.6325 µM): 0.891
relative viability (NCI-H1755; first compound 2 µM): 0.864
relative viability (NCI-H1755; first compound 6.325 µM): 0.952
relative viability (NCI-H1755; first compound 20 µM): 0.892
relative viability (NCI-H2085; first compound 0.2 µM): 1.04
relative viability (NCI-H2085; first compound 0.6325 µM): 0.941
relative viability (NCI-H2085; first compound 2 µM): 0.962
relative viability (NCI-H2085; first compound 6.325 µM): 0.554
relative viability (NCI-H2085; first compound 20 µM): 0.35
relative viability (NCI-H2228; first compound 0.2 µM): 1.06
relative viability (NCI-H2228; first compound 0.6325 µM): 0.654
relative viability (NCI-H2228; first compound 2 µM): 0.744
relative viability (NCI-H2228; first compound 6.325 µM): 0.534
relative viability (NCI-H2228; first compound 20 µM): 0.0746
relative viability (NCI-H2347; first compound 0.2 µM): 1.08
relative viability (NCI-H2347; first compound 0.6325 µM): 1.01
relative viability (NCI-H2347; first compound 2 µM): 0.602
relative viability (NCI-H2347; first compound 6.325 µM): 1.08
relative viability (NCI-H2347; first compound 20 µM): 0.923
relative viability (NCI-H3122; first compound 0.2 µM): 0.696
relative viability (NCI-H3122; first compound 0.6325 µM): 0.683
relative viability (NCI-H3122; first compound 2 µM): 0.844
relative viability (NCI-H3122; first compound 6.325 µM): 0.628
relative viability (NCI-H3122; first compound 20 µM): 0.684
relative viability (NCI-H322M; first compound 0.2 µM): 0.942
relative viability (NCI-H322M; first compound 6.325 µM): 0.907
relative viability (NCI-H322M; first compound 20 µM): 0.671
relative viability (NCI-H358; first compound 0.2 µM): 1.17
relative viability (NCI-H358; first compound 0.6325 µM): 0.781
relative viability (NCI-H358; first compound 6.325 µM): 0.908
relative viability (NCI-H358; first compound 20 µM): 0.0962
relative viability (NCI-H460; first compound 0.2 µM): 0.571
relative viability (NCI-H460; first compound 0.6325 µM): 0.358
relative viability (NCI-H460; first compound 2 µM): 0.411
relative viability (NCI-H460; first compound 6.325 µM): 0.0066
relative viability (NCI-H460; first compound 20 µM): 0.0038
relative viability (NCI-H520; first compound 0.2 µM): 1.21
relative viability (NCI-H520; first compound 0.6325 µM): 0.84
relative viability (NCI-H520; first compound 6.325 µM): 0.831
relative viability (NCI-H520; first compound 20 µM): 0.0746
relative viability (NCI-H596; first compound 0.2 µM): 0.539
relative viability (NCI-H596; first compound 0.6325 µM): 0.446
relative viability (NCI-H596; first compound 2 µM): 0.586
relative viability (NCI-H596; first compound 6.325 µM): 0.673
relative viability (NCI-H596; first compound 20 µM): 0.469
relative viability (NCI-H650; first compound 0.2 µM): 1.38
relative viability (NCI-H650; first compound 2 µM): 1.08
relative viability (NCI-H650; first compound 6.325 µM): 1.02
relative viability (NCI-H650; first compound 20 µM): 0.099
relative viability (NCI-H727; first compound 0.2 µM): 0.592
relative viability (NCI-H727; first compound 0.6325 µM): 0.612
relative viability (NCI-H727; first compound 2 µM): 0.568
relative viability (NCI-H727; first compound 6.325 µM): 0.402
relative viability (NCI-H727; first compound 20 µM): 0.0858
relative viability (NCI-H838; first compound 0.2 µM): 1.26
relative viability (NCI-H838; first compound 0.6325 µM): 0.968
relative viability (NCI-H838; first compound 2 µM): 1.06
relative viability (NCI-H838; first compound 6.325 µM): 1.13
relative viability (NCI-H838; first compound 20 µM): 0.61
relative viability (SW 1573; first compound 0.2 µM): 0.845
relative viability (SW 1573; first compound 0.6325 µM): 0.691
relative viability (SW 1573; first compound 2 µM): 0.538
relative viability (SW 1573; first compound 6.325 µM): 0.355
relative viability (SW 1573; first compound 20 µM): 0.0324
